System: SARS-CoV-2
Experiment: microbe, parasite or virus in culture
Settings: Severe acute respiratory syndrome coronavirus 2, Vero C1008, 48 h

| SMILES | IC50 | IC50 (read-out: pIC50 (converted)) |
| --- | --- | --- |
| C[C@]1(COc2ccc(N3CCC(Oc4ccc(OC(F)(F)F)cc4)CC3)cc2)Cn2cc([N+](=O)[O-])nc2O1 | > 20 µM | > 20 µM |
| CC1(C)OC(=O)Nc2ccc(Br)cc21 [BROFOXINE] | > 20 µM | > 20 µM |
| Cc1cc(C(C)(C)CC(C)(C)C)ccc1OCCOCC[N+](C)(C)Cc1ccccc1 [METHYLBENZETHONIUM] | > 20 µM | > 20 µM |
| NC1=NC(=O)C(c2ccccc2)O1 (stereo unspecified) [PEMOLINE] | > 20 µM | > 20 µM |
| C[C@@H](NCCCc1cccc(C(F)(F)F)c1)c1cccc2ccccc12 | > 20 µM | > 20 µM |
| CN1CC[C@@H](c2c(O)cc(O)c3c(=O)cc(-c4ccccc4Cl)oc23)[C@@H]1CO | > 20 µM | > 20 µM |
| CC(N)C(O)c1cccc(O)c1 (stereo unspecified) | > 20 µM | > 20 µM |
| O=C(O)CC(=O)O [MALONIC ACID] | > 20 µM | > 20 µM |
| O=P1(NCCCl)OCCCN1CCCl (stereo unspecified) [IFOSFAMIDE] | > 20 µM | > 20 µM |
| COC(=O)c1nc2cc(Cl)c3cccnc3c2o1 [QUAZOLAST] | > 20 µM | > 20 µM |
| CCn1cc(C(=O)O)c(=O)c2cnc(N3CCNCC3)nc21 [PIPEMIDIC ACID] | > 20 µM | > 20 µM |
| Cc1ncc([N+](=O)[O-])n1CC(C)O (stereo unspecified) [SECNIDAZOLE] | > 20 µM | > 20 µM |
| O=C1C=C2C=C[C@@H]3C[C@@]2(O1)[C@H]1CCCCN31 [SECURININE] | > 20 µM | > 20 µM |
| CC(=O)Oc1ccc(C2(c3ccc(OC(C)=O)cc3)C(=O)Nc3ccccc32)cc1 [OXYPHENISATIN ACETATE] | > 20 µM | > 20 µM |
| C=C1CC23CCC4C(C)(C(=O)O)CCCC4(C)C2CCC1(OC1OC(CO)C(O)C(O)C1OC1OC(CO)C(O)C(O)C1O)C3 (stereo unspecified) | > 20 µM | > 20 µM |
| O=C1CN=C(c2ccccc2)c2cc(Cl)ccc2N1CC(F)(F)F [HALAZEPAM] | > 20 µM | > 20 µM |
| CCC1(c2cccc(O)c2)CCCCN(C)C1 (stereo unspecified) [MEPTAZINOL] | > 20 µM | > 20 µM |
| CC[C@@H](Nc1c(Nc2cccc(C(=O)N(C)C)c2O)c(=O)c1=O)c1ccc(C)o1 [NAVARIXIN ANHYDROUS] | > 20 µM | > 20 µM |
| Cc1c(OCC(F)(F)F)ccnc1C[S+]([O-])c1nc2ccccc2[nH]1 (stereo unspecified) [LANSOPRAZOLE] | > 20 µM | > 20 µM |

| SMILES | IC50 | IC50 (read-out: pIC50 (converted)) |
| --- | --- | --- |
| O=C(OCCN1CCOCC1)c1cccnc1Nc1cccc(C(F)(F)F)c1 [MORNIFLUMATE] | > 20 µM | > 20 µM |
| Cc1cc(CC(=O)O)n(C)c1C(=O)c1ccc(Cl)cc1 [ZOMEPIRAC] | > 20 µM | > 20 µM |
| COc1cnc(-n2cnc(C)n2)c2c1c(C(=O)C(=O)N1CCN(C(=O)c3ccccc3)CC1)cn2COP(=O)(O)O [FOSTEMSAVIR] | > 20 µM | > 20 µM |
| CNC(=O)[C@H]1O[C@@H](n2cnc3c(NCc4cccc(I)c4)nc(Cl)nc32)[C@H](O)[C@@H]1O [NAMODENOSON] | > 20 µM | > 20 µM |
| CO/N=C(\C(=O)N[C@@H]1C(=O)N2C(C(=O)O)=C(COC(C)=O)CS[C@H]12)c1csc(N)n1 [CEFOTAXIME] | > 20 µM | > 20 µM |
| CCc1cc(Nc2nc(-c3ccc(-n4cnc(C)c4)c(F)c3)cs2)c(C)cc1C | > 20 µM | > 20 µM |
| C#CCN(C)C(C)Cc1ccccc1 (stereo unspecified) | > 20 µM | > 20 µM |
| COc1ccc(CCN)cc1OC | > 20 µM | > 20 µM |
| C[C@]12CCC(=O)C=C1CC[C@@H]1[C@@H]2CC[C@@]2(C)[C@H]1CC[C@]2(O)C(=O)CO [CORTODOXONE] | > 20 µM | > 20 µM |
| CS(=O)(=O)c1ccc([C@@H](O)[C@H](CF)NC(=O)C(Cl)Cl)cc1 | > 20 µM | > 20 µM |
| Cc1onc(-c2ccccc2Cl)c1C(=O)N[C@@H]1C(=O)N2[C@@H]1SC(C)(C)[C@@H]2C(=O)O [CLOXACILLIN] | > 20 µM | > 20 µM |
| COCCO[C@@H]1c2ccn3c(C)c(C)nc3c2N[C@H](c2ccccc2)[C@H]1O [SORAPRAZAN] | > 20 µM | > 20 µM |
| CCN(CC)C(=O)C1C=C2c3cccc4[nH]cc(c34)CC2N(C)C1 (stereo unspecified) | > 20 µM | > 20 µM |
| COc1cc2c(cc1OC)C(C)NCC2 (stereo unspecified) | > 20 µM | > 20 µM |
| CN1CCC(N(Cc2cccs2)c2ccccc2)CC1 [THENALIDINE] | > 20 µM | > 20 µM |
| COc1ccc2c(c1OC)C(=O)O[C@@H]2[C@H]1c2cc3c(cc2CCN1C)OCO3 [HYDRASTINE] | > 20 µM | > 20 µM |
| CCC(Cc1c(I)cc(I)c(N)c1I)C(=O)O (stereo unspecified) [IOPANOIC ACID] | > 20 µM | > 20 µM |
| O=C(O)c1nn(-c2ccc(S(=O)(=O)O)cc2)c(O)c1/N=N/c1ccc(S(=O)(=O)O)cc1 | > 20 µM | > 20 µM |
| O=C(c1ccc(Oc2ccc(F)cc2)nc1)N1CCCN(C2CCC2)CC1 [JNJ-39220675] | > 20 µM | > 20 µM |

Reference: ChEMBL document CHEMBL4651402, “Screening of ~5500 FDA-approved drugs and clinical candidates for anti-SARS-CoV-2 activity” (2021)
